Read-outs that look alike come from different tables or passages of the source.
What was measured:
[1] = tested on: advanced hormone receptor positive breast cancer; assay: ENCORE 301 randomized, placebo-controlled phase II trial: clinical outcome (PFS, OS); format: in vivo, human; settings: the 34 patients analysed for immune subsets
Text: Blood was collected from a subset of 49 patients (27 EE and 22 EP) representative of the 130 patients enrolled in ENCORE 301 on cycle 1 day 1 (C1D1; pretreatment), C1D2, C1D8, and C1D15 for biomarker analyses. Of these 49, C1D1 and C1D15 samples were available from 34 patients (20 EE and 14 EP) for further analysis of circulating immune subsets.

[2] = tested on: CD14+ monocytes in PBMCs of breast cancer patients; assay: ENCORE 301 blood samples: flow cytometry of circulating monocyte populations, baseline vs C1D15; format: in vivo, human
Text: (A) Gating strategy for analysis of CD14^+ monocytes (left panel), CD14^+HLA-DR^hi monocytes (red box, right upper panel), and CD14^+HLA-DR^low/neg monocytes (blue box, right lower panel) in PBMCs of breast cancer patients. Initially gated on single viable CD45^+ cells. […] (D) HLA-DR expression on CD14^+ monocytes in vitro. […] Median fluorescence intensity, MFI.
(§1) Blood samples were obtained on cycle 1 day 1 (C1D1; pre-treatment), C1D2, C1D8, and C1D15 for biomarker analyses. […] Cell populations were based on the following surface markers, in which “X−” means negative for marker X, “X+” means positive for marker X, “Xlow/−” means low levels to absence of marker X, and “Xhi” means high levels of expression of marker X:
(§2) Monocytes were analyzed for three populations: (1) CD14+; (2) CD14+, HLA-DRhi; and (3) CD14+, HLA-DRlow/−. PD-1, CTLA-4, and TIM-3 were measured on CD8+ T-cells, CD4+ T-cells, and Tregs, and CD40 was measured on myeloid derived suppressor cells.
(§3) The percent change in subsets at C1D15 vs. baseline was assessed based on the following surface markers: Lin-MDSC (lin;CD3,CD19,CD56)-HLA-DR-CD11b+CD33+), granulocytic MDSC (CD14−CD11b+CD33+), monocytic MDSC (Lin−HLA-DR−CD11b+CD33+CD14+), immature MDSC (Lin−HLA-DR−CD11b+CD33+CD14−), CD8+T-cells (CD4−CD8+), Foxp3−CD4+T-cells (CD8−CD4+Foxp3−), and Tregs (CD4+CD8−CD25hiFoxp3+). Monocytes were analyzed for three populations: CD14+, CD14+HLA-DRhi, and CD14+HLA-DR-low/negative. In addition, PD-1, CTLA-4, and TIM-3 were measured on T-cell subsets, and CD40 was measured on MDSCs.

[3] = tested on: myeloid derived suppressor cells in PBMCs of breast cancer patients; assay: ENCORE 301 blood samples: flow cytometry of circulating MDSC subsets and CD40 on MDSCs, baseline vs C1D15; format: in vivo, human
Text: (A) Gating strategy for analysis of MDSC phenotypes in PBMCs of breast cancer patients. Initial gating was on single viable CD45^+ cells. Lineage (CD3, CD19, CD56)^−HLA-DR^−CD11b^+CD33^+ cells were defined as Lin^−MDSCs. The Lin^−MDSCs were further divided into monocytic MDSCs (Lin^−HLA-DR^−CD11b^+CD33^+CD14^+ cells) and immature MDSCs (Lin^−HLA-DR^−CD11b^+CD33^+CD14^− cells). CD14^−CD11b^+CD33^+ cells were defined as granulocytic MDSCs. […]
as §1
Myeloid derived suppressor cell: CD3−, CD19−, CD56−, HLA-DR−, CD11b+, CD33+.
PMN-MDSC: CD14−, CD11b+, CD33+.
M-MDSC: CD3−, CD19−, CD56−, HLA-DR−, CD11b+, CD33+, CD14+.
Immature MDSC: CD3−, CD19−, CD56−, HLA-DR−, CD11b+, CD33+, CD14−.
as §2, §3

[4] = tested on: T-cell subsets in PBMCs of breast cancer patients; assay: ENCORE 301 blood samples: T-cell subsets and immune checkpoint receptor expression; format: in vivo, human; settings: ENCORE 301 patients, C1D15 vs baseline
Experimental: FIG. 5 illustrates gating strategy for analysis of T-cell subsets in PBMCs of breast cancer patients. (A) Initial gating was on single viable cells. The CD4^+ T-cells were further divided into Tregs (CD8^−CD4^+CD25^hiFoxp3^+ cells) and Foxp3^−CD4^+ T-cells (CD8^−CD4^+Foxp3^− cells). (B) Immune checkpoint receptor expression was evaluated for CD8^+ T-cells, Foxp3^−CD4^+ T-cells, and Tregs. Representative histograms for PD-1 (left), CTLA-4 (middle), and TIM-3 (right) were shown.
CD8+ T-cell: CD4−, CD8+, Foxp3−.
CD4+ T-cell: CD8−, CD4+, Foxp3−.
Tregs: CD4+, CD8−, CD25hi, Foxp3+.
as §2, §3

[5] = tested on: monocytic MDSCs, granulocytic MDSCs and Lineage cells from healthy donor PBMCs; assay: In vitro dead cell dye staining of PBMCs cultured with IL-6 and GM-CSF, then DMSO or entinostat; format: cell-based, human; settings: entinostat 0.5 μM vs DMSO, two or three days, n=7
Experimental: (C) Absolute viable cell counts of MDSCs (upper panel, monocytic MDSCs; lower panel, granulocytic MDSCs). Fresh PBMCs (2×10^6 PBMCs/well) were cultured with IL-6 (10 ng/ml) and GM-CSF (10 ng/ml). […] (D) Percentage of dead cell dye-positive cells in the monocytic MDSCs (red line), granulocytic MDSCs (blue line), and Lineage cells (black line). […] Percentage of dead cell dye-positive cells among each population (monocytic MDSCs, granulocytic MDSCs, and lineage cells) was calculated. Mean±SD is shown (n=7).

[6] = in vivo; cited from earlier work
[7] = tested on: squamous or non-squamous NSCLC; settings: cited from earlier work
melanoma = settings: cited from earlier work
[8] = tested on: advanced refractory malignancies; settings: cited from earlier work
[9] = C1D1 vs C1D15, statistic not stated
[10] = breast cancer patients, EP n = 14, EE n = 20, mean
[11] = breast cancer patients, EP n = 14, EE n = 20, median

Compound: C=C1C[C@@H]2[C@H](CC[C@]3(C)C(=O)CC[C@@H]23)[C@@]2(C)C=CC(=O)C=C12 [EP]
- Overall Survival (OS) [1]: 20.3 months
- Progression Free Survival (PFS) [1]: 1.8 months
- HLA-DR levels (expression) on monocytes, change [2, 9]: −4.7%
- change of (number of) HLA-DR+ monocytes [2, 9]: −11.38%
- CD14+ change from baseline to C1D15, Mean (SD) [2, 10]: −0.58 (22.73) %
- CD14+HLA-DR HI change from baseline to C1D15, Mean (SD) [2, 10]: −8.63 (17.77) %
- CD14+HLA-DR LO/NEG change from baseline to C1D15, Mean (SD) [2, 10]: 13.45 (43.11) %
- HLA-DR expression on CD14+ change from baseline to C1D15, Mean (SD) [2, 10]: −6.23 (18.77) %
- CD14+ change from baseline to C1D15, Median (Min, Max) [2, 11]: 1.90 %
- CD14+HLA-DR HI change from baseline to C1D15, Median (Min, Max) [2, 11]: −11.38 %
- CD14+HLA-DR LO/NEG change from baseline to C1D15, Median (Min, Max) [2, 11]: 1.55 %
- HLA-DR expression on CD14+ change from baseline to C1D15, Median (Min, Max) [2, 11]: −4.74 %
- change of M-MDSCs (monocytic MDSC) [3, 9]: +1.97%
- change of PMN-MDSCs (granulocytic MDSC) [3, 9]: +20.56%
- change of immature MDSCs [3, 9]: −15.0%
- CD40 on Lin-MDSCs change from baseline to C1D15, Mean (SD) [3, 10]: 14.85 (34.92) %
- CD40 on g-MDSCs change from baseline to C1D15, Mean (SD) [3, 10]: 16.52 (32.07) %
- CD40 on immature MDSCs change from baseline to C1D15, Mean (SD) [3, 10]: 18.64 (35.15) %
- CD40 on m-MDSCs change from baseline to C1D15, Mean (SD) [3, 10]: 3.37 (25.69) %
- Lin-MDSCs change from baseline to C1D15, Mean (SD) [3, 10]: 1.28 (83.31) %
- g-MDSCs change from baseline to C1D15, Mean (SD) [3, 10]: 20.56 (68.45) %
- immature MDSCs change from baseline to C1D15, Mean (SD) [3, 10]: 4.92 (94.50) %
- m-MDSCs change from baseline to C1D15, Mean (SD) [3, 10]: 28.24 (86.60) %
- CD40 on Lin-MDSCs change from baseline to C1D15, Median (Min, Max) [3, 11]: 3.37 %
- CD40 on g-MDSCs change from baseline to C1D15, Median (Min, Max) [3, 11]: 10.52 %
- CD40 on immature MDSCs change from baseline to C1D15, Median (Min, Max) [3, 11]: 9.00 %
- CD40 on m-MDSCs change from baseline to C1D15, Median (Min, Max) [3, 11]: 1.57 %
- Lin-MDSCs change from baseline to C1D15, Median (Min, Max) [3, 11]: −22.11 %
- g-MDSCs change from baseline to C1D15, Median (Min, Max) [3, 11]: 3.82 %
- immature MDSCs change from baseline to C1D15, Median (Min, Max) [3, 11]: −20.94 %
- m-MDSCs change from baseline to C1D15, Median (Min, Max) [3, 11]: 1.97 %

Compound: Nc1ccccc1NC(=O)c1ccc(CNC(=O)OCc2cccnc2)cc1 [Entinostat, N-(2-aminophenyl)-4-[N-(pyridine-3-yl)methoxycarbonylamino-methyl]-benzamide]
- alteration of expression of CTLA-4, PD-1, or TIM-3 on T-cell subsets [4]: did not significantly
- percentage of dead (dead cell dye-positive) granulocytic MDSCs ([5]; P=0.016): increased
- percentage of dead (dead cell dye-positive) monocytic MDSCs ([5]; P=0.016): increased
- percentage of dead (dead cell dye-positive) lineage cells (CD3+, CD19+, or CD56+) ([5]; P=0.7): not increased
- half-life [6]: about 100 hours

Compound: MPDL3280A: human anti-PD-L1 mAb with engineered Fc domain
- 24-week PFS rate ([7]; non-squamous cell NSCLC): 46%
- 24-week PFS rate ([7]; squamous cell NSCLC): 44%

Compound: Pembrolizumab: humanized monoclonal IgG4 anti-PD-1 antibody
- overall objective response rate (ORR) (melanoma; immune-related response criteria, 44 of 117): 38%
- patients with some AEs (melanoma; in vivo): 79%
- rate of severe toxicities, less dose intense cohorts (melanoma; in vivo): < 10%
- median progression free survival (melanoma; melanoma): exceeded 7 months
- patients with some degree of tumor regression (melanoma; melanoma): 77%
- maximum tolerated dose ([8]; 1, 3 and 10 mg/kg intravenously): not reached
- patients with some tumor regression ([8]; dose-escalation study): Four
- half-life ([8]; in vivo): 13.6 to 21.7 days
